Test results published in patent US11053204B2, “Pyrimidinyloxy benzene derivatives as herbicides” (FMC Corporation, priority 2015, dated 2021).

Columns and labels:
Type in all cases: in vivo
[1] = system: lambsquarters (Chenopodium album); experiment: Test C postemergence, plant response rating; details: for Lambsquarters plant response rating: scale 0 to 100 (0 no effect, 100 complete control)
Summary of the method: (§1)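 Visual injury score, 0 = no effect, 100 = complete control, assigned against untreated controls after 13 to 15 d in the greenhouse. Compounds were applied in a surfactant-containing non-phytotoxic solvent mix, preemergence to seeded loam/sand or silt loam soil, or postemergence to 1- to 4-leaf plants (2 to 18 cm).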

[2] = system: morningglory (Ipomoea coccinea); experiment: Test C postemergence, plant response rating; details: for Morningglory plant response rating: scale 0 to 100 (0 no effect, 100 complete control)
Summary of the method: as §1

[3] = system: barnyardgrass (Echinochloa crus-galli); experiment: Test C postemergence, plant response rating; details: for Plant response rating, Barnyardgrass: scale 0 to 100; for Barnyardgrass plant response rating: scale 0 to 100 (0 no effect, 100 complete control)
Summary of the method: as §1

[4] = system: foxtail, giant (giant foxtail, Setaria faberii); experiment: Test C postemergence, plant response rating; details: for Foxtail, Giant plant response rating: scale 0 to 100 (0 no effect, 100 complete control)
Summary of the method: as §1

[5] = system: crabgrass, large (large crabgrass, Digitaria sanguinalis); experiment: Test C postemergence, plant response rating; details: for Crabgrass, Large plant response rating: scale 0 to 100 (0 no effect, 100 complete control)
Summary of the method: as §1

soybean (Glycine max) = experiment: Test C postemergence, plant response rating; details: for Soybean plant response rating: scale 0 to 100 (0 no effect, 100 complete control)
Summary of the method: as §1

[6] = system: nutsedge, yellow (yellow nutsedge, Cyperus esculentus); experiment: Test C postemergence, plant response rating; details: for Nutsedge, Yellow plant response rating: scale 0 to 100 (0 no effect, 100 complete control)
Summary of the method: as §1

corn (Zea mays) = experiment: Test C postemergence, plant response rating; details: for Corn plant response rating: scale 0 to 100 (0 no effect, 100 complete control)
Summary of the method: as §1

[7] = system: ryegrass, Italian (Italian ryegrass, Lolium multiflorum); experiment: Test C postemergence, plant response rating; details: for Ryegrass, Italian plant response rating: scale 0 to 100 (0 no effect, 100 complete control)
Summary of the method: as §1

[8] = system: oat, wild (wild oat Avena fatua); experiment: Test C postemergence, plant response rating; details: for Oat, Wild plant response rating: scale 0 to 100 (0 no effect, 100 complete control)
Summary of the method: as §1

[9] = system: wheat (winter wheat, Triticum aestivum); experiment: Test C postemergence, plant response rating
Summary of the method: as §1

[10] = system: chickweed (common chickweed, Stellaria media); experiment: Test C postemergence, plant response rating; details: for Chickweed plant response rating: scale 0 to 100 (0 no effect, 100 complete control)
Summary of the method: as §1

[11] = system: oilseed rape (Brassica napus); experiment: Test C postemergence, plant response rating; details: for Oilseed Rape plant response rating: scale 0 to 100 (0 no effect, 100 complete control)
Summary of the method: as §1

kochia (Kochia scoparia) [12] = experiment: Test C postemergence, plant response rating; details: for Kochia plant response rating: scale 0 to 100 (0 no effect, 100 complete control)
Summary of the method: as §1

[13] = system: blackgrass (Alopecurus myosuroides); experiment: Test C postemergence, plant response rating; details: for Plant response rating, Blackgrass: scale 0 to 100; for Blackgrass plant response rating: scale 0 to 100 (0 no effect, 100 complete control)
Summary of the method: as §1

[14] = system: barnyardgrass (Echinochloa crus-galli); experiment: Test A preemergence, visual injury rating; details: 0 to 100 scale (0 no effect, 100 complete control)
Summary of the method: (§2)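 Pre- and postemergence greenhouse screen. Soil: loam + sand. Spray carrier: solvent mixture, non-phytotoxic, with surfactant. Post timing at 1–2 leaves, height 2–10 cm. Readout: visual injury on a 0–100 scale roughly 10 days after application, untreated plants as reference.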

kochia (Kochia scoparia) [15] = experiment: Test A preemergence, visual injury rating; details: 0 to 100 scale (0 no effect, 100 complete control)
Summary of the method: as §2

CCCC(=O)c1c(Oc2ncc(Cl)cn2)cccc1C(F)(F)F [Compound 136]
Plant response rating, Lambsquarters ([1]; 16 g ai/ha, scale of 0 to 100): 55
Plant response rating, Lambsquarters ([1]; 31 g ai/ha, scale 0 to 100): 75
Lambsquarters plant response rating ([1]; 62 g ai/ha): 80
Lambsquarters plant response rating ([1]; 125 g ai/ha): 80
Plant response rating, Morningglory ([2]; 16 g ai/ha, scale of 0 to 100): 10
Plant response rating, Morningglory ([2]; 31 g ai/ha, scale 0 to 100): 15
Morningglory plant response rating ([2]; 62 g ai/ha): 20
Morningglory plant response rating ([2]; 125 g ai/ha): 35
Plant response rating, Barnyardgrass ([3]; 16 g ai/ha): 5
Plant response rating, Barnyardgrass ([3]; 31 g ai/ha): 5
Barnyardgrass plant response rating ([3]; 62 g ai/ha): 10
Barnyardgrass plant response rating ([3]; 125 g ai/ha): 10
Plant response rating, Foxtail, Giant ([4]; 16 g ai/ha, scale of 0 to 100): 10
Plant response rating, Foxtail, Giant ([4]; 31 g ai/ha, scale 0 to 100): 20
Foxtail, Giant plant response rating ([4]; 62 g ai/ha): 10
Foxtail, Giant plant response rating ([4]; 125 g ai/ha): 25
Plant response rating, Crabgrass, Large ([5]; 16 g ai/ha, scale of 0 to 100): 5
Plant response rating, Crabgrass, Large ([5]; 31 g ai/ha, scale 0 to 100): 5
Crabgrass, Large plant response rating ([5]; 62 g ai/ha): 10
Crabgrass, Large plant response rating ([5]; 125 g ai/ha): 30
Plant response rating, Soybean (soybean (Glycine max); 16 g ai/ha, scale of 0 to 100): 30
Plant response rating, Soybean (soybean (Glycine max); 31 g ai/ha, scale 0 to 100): 40
Soybean plant response rating (soybean (Glycine max); 62 g ai/ha): 50
Soybean plant response rating (soybean (Glycine max); 125 g ai/ha): 40
Plant response rating, Nutsedge, Yellow ([6]; 16 g ai/ha, scale of 0 to 100): 0
Plant response rating, Nutsedge, Yellow ([6]; 31 g ai/ha, scale 0 to 100): 0
Nutsedge, Yellow plant response rating ([6]; 62 g ai/ha): 0
Nutsedge, Yellow plant response rating ([6]; 125 g ai/ha): 5
Plant response rating, Corn (corn (Zea mays); 16 g ai/ha, scale of 0 to 100): 5
Plant response rating, Corn (corn (Zea mays); 31 g ai/ha, scale 0 to 100): 10
Corn plant response rating (corn (Zea mays); 62 g ai/ha): 20
Corn plant response rating (corn (Zea mays); 125 g ai/ha): 20
Plant response rating, Ryegrass, Italian ([7]; 16 g ai/ha, scale of 0 to 100): 0
Plant response rating, Ryegrass, Italian ([7]; 31 g ai/ha, scale 0 to 100): 5
Ryegrass, Italian plant response rating ([7]; 62 g ai/ha): 5
Ryegrass, Italian plant response rating ([7]; 125 g ai/ha): 10
Plant response rating, Oat, Wild ([8]; 16 g ai/ha, scale of 0 to 100): 5
Plant response rating, Oat, Wild ([8]; 31 g ai/ha, scale 0 to 100): 5
Oat, Wild plant response rating ([8]; 62 g ai/ha): 10
Oat, Wild plant response rating ([8]; 125 g ai/ha): 10
Plant response rating, Wheat ([9]; 16 g ai/ha, scale of 0 to 100): 0
Plant response rating, Wheat ([9]; 31 g ai/ha, scale 0 to 100): 5
Wheat plant response rating ([9]; 125 g ai/ha, scale 0 to 100 (0 no effect, 100 complete control)): 5
Plant response rating, Chickweed ([10]; 16 g ai/ha, scale of 0 to 100): 55
Plant response rating, Chickweed ([10]; 31 g ai/ha, scale 0 to 100): 65
Chickweed plant response rating ([10]; 62 g ai/ha): 75
Chickweed plant response rating ([10]; 125 g ai/ha): 80
Plant response rating, Oilseed Rape ([11]; 16 g ai/ha, scale of 0 to 100): 65
Plant response rating, Oilseed Rape ([11]; 31 g ai/ha, scale 0 to 100): 80
Oilseed Rape plant response rating ([11]; 62 g ai/ha): 80
Oilseed Rape plant response rating ([11]; 125 g ai/ha): 80
Plant response rating, Kochia (kochia (Kochia scoparia) [12]; 16 g ai/ha, scale of 0 to 100): 80
Plant response rating, Kochia (kochia (Kochia scoparia) [12]; 31 g ai/ha, scale 0 to 100): 80
Kochia plant response rating (kochia (Kochia scoparia) [12]; 62 g ai/ha): 85
Kochia plant response rating (kochia (Kochia scoparia) [12]; 125 g ai/ha): 90
Plant response rating, Blackgrass ([13]; 16 g ai/ha): 5
Plant response rating, Blackgrass ([13]; 31 g ai/ha): 10
Blackgrass plant response rating ([13]; 62 g ai/ha): 10
Blackgrass plant response rating ([13]; 125 g ai/ha): 15
Plant response rating, Barnyardgrass ([14]; 125 g ai/ha): 100
Barnyardgrass plant response rating ([14]; 500 g ai/ha): 100
Plant response rating, Kochia (kochia (Kochia scoparia) [15]; 125 g ai/ha): 100
Kochia plant response rating (kochia (Kochia scoparia) [15]; 500 g ai/ha): 100
